# PMC7572570 (Clinical cancer research : an official journal of the …, 2020)
# Where “and” joins values, the source holds several entries; their conditions need not be identical. Equal values may be shown once. Read-outs that look alike come from different tables or passages of the source.
# Columns and labels:
# [1] = in vivo
# [2] = tested on: select advanced solid tumors or hematologic malignancies; assay: Treatment duration and antitumor activity; assay type: in vivo, human; settings: all cohorts, heavily pre-treated population with liver dysfunction
# [3] = population PK analysis in patients with CTCL and PTCL; cited from earlier work
# [4] = Safety, dose-limiting toxicity and treatment-emergent adverse events
# clinical = settings: human, plasma
# [5] = mild hepatic impairment 14 mg/m^2 vs normal 14 mg/m^2
# [6] = moderate hepatic impairment 7 mg/m^2 vs normal 14 mg/m^2
# [7] = patients who did not experience a DLT
# [8] = severe hepatic impairment 5 mg/m^2 vs normal 14 mg/m^2
# [9] = the two patients who had DLTs (individual values)
# [10] = Severe (D) n=6, 5 mg/m^2, treatment-related TEAE, Cycle 1
# [11] = Total n=31, all cohorts, treatment-related TEAE, Cycle 1
compound,measurement,setting,value
C/C=C1\NC(=O)[C@H]2CSSCC/C=C/[C@H](CC(=O)N[C@H](C(C)C)C(=O)N2)OC(=O)[C@H](C(C)C)NC1=O [romidepsin],"Alkaline phosphatase increased, Any Grade",[1]; human,1 (3%) n (%)
same,"Anorexia, Any Grade",[1]; human,11 (35%) n (%)
same,"ECG changes (QT, ST-T changes), number of patients",[1]; human,4
same,"ECG changes (QT, ST-T changes), patients",[1]; human,23%
same,"Aspartate aminotransferase increased, Any Grade","[1]; human, 28 day",1 (3%) n (%)
same,"Asthenia, Any Grade","[1]; human, 28 day",3 (10%) n (%)
same,"Bradycardia, Any Grade","[1]; human, 28 day",1 (3%) n (%)
same,"Creatinine increased, Any Grade","[1]; human, 28 day",2 (6%) n (%)
same,"aPTT increased, Any Grade","[1]; human, 28 day",1 (3%) n (%)
same,"decreased white blood cell counts, all grade treatment-emergent adverse event","[1]; human, 28 day",55%
same,subjects who discontinued before the end of Cycle 1 due to an adverse event,"[1]; human, 28 day",3
same,"vomiting, all grade treatment-emergent adverse event","[1]; human, 28 day",42%
same,"Abdominal distension, Any Grade","[1]; human, 28 days",1 (3%) n (%)
same,"Abdominal pain, Any Grade","[1]; human, 28 days",1 (3%) n (%)
same,"Anemia, Any Grade","[1]; human, 28 days",9 (29%) n (%)
same,"Anemia, Grade 3 or 4","[1]; human, 28 days",1 (3%) n (%)
same,"Diarrhea, Any Grade","[1]; human, 28 days",2 (6%) n (%)
same,"Dizziness, Any Grade","[1]; human, 28 days",2 (6%) n (%)
same,"Dry mouth, Any Grade","[1]; human, 28 days",1 (3%) n (%)
same,"Dry skin, Any Grade","[1]; human, 28 days",1 (3%) n (%)
same,"Dysgeusia, Any Grade","[1]; human, 28 days",3 (10%) n (%)
same,"Dyspepsia, Any Grade","[1]; human, 28 days",1 (3%) n (%)
same,"Fatigue, Any Grade","[1]; human, 28 days",13 (42%) n (%)
same,"Fatigue, Grade 3 or 4","[1]; human, 28 days",2 (6%) n (%)
same,"Gastric haemorrhage, Any Grade","[1]; human, 28 days",1 (3%) n (%)
same,"Gastric haemorrhage, Grade 3 or 4","[1]; human, 28 days",1 (3%) n (%)
same,"Generalized pain, Any Grade","[1]; human, 28 days",1 (3%) n (%)
same,"Glossodynia, Any Grade","[1]; human, 28 days",1 (3%) n (%)
same,"Headache, Any Grade","[1]; human, 28 days",4 (13%) n (%)
same,"Hypercalcemia, Any Grade","[1]; human, 28 days",1 (3%) n (%)
same,"Hyperuricemia, Any Grade","[1]; human, 28 days",1 (3%) n (%)
same,"Hypoalbuminemia, Any Grade","[1]; human, 28 days",3 (10%) n (%)
same,"Hypocalcemia, Any Grade","[1]; human, 28 days",1 (3%) n (%)
same,"Hypoglycemia, Any Grade","[1]; human, 28 days",1 (3%) n (%)
same,"Hypokalemia, Any Grade","[1]; human, 28 days",1 (3%) n (%)
same,"Hypomagnesmia, Any Grade","[1]; human, 28 days",1 (3%) n (%)
same,"Hyponatremia, Any Grade","[1]; human, 28 days",4 (13%) n (%)
same,"Hypotension, Any Grade","[1]; human, 28 days",1 (3%) n (%)
same,"Hypotension, Grade 3 or 4","[1]; human, 28 days",1 (3%) n (%)
same,"Muscle cramping, Any Grade","[1]; human, 28 days",1 (3%) n (%)
same,"Nausea, Any Grade","[1]; human, 28 days",21 (68%) n (%)
same,"Nausea, Grade 3 or 4","[1]; human, 28 days",2 (6%) n (%)
same,"Peripheral neuropathy, Any Grade","[1]; human, 28 days",2 (6%) n (%)
same,"Photophobia, Any Grade","[1]; human, 28 days",1 (3%) n (%)
same,"QTc prolongation, Any Grade","[1]; human, 28 days",7 (23%) n (%)
same,"Tachycardia, Any Grade","[1]; human, 28 days",2 (6%) n (%)
same,"Thrombocytopenia, Any Grade","[1]; human, 28 days",16 (52%) n (%)
same,"Thrombocytopenia, Grade 3 or 4","[1]; human, 28 days",1 (3%) n (%)
same,"Vomiting, Any Grade","[1]; human, 28 days",13 (42%) n (%)
same,"WBC decrease, Any Grade","[1]; human, 28 days",17 (55%) n (%)
same,"WBC decrease, Grade 3 or 4","[1]; human, 28 days",7 (23%) n (%)
same,"Weight loss, Any Grade","[1]; human, 28 days",1 (3%) n (%)
same,Torsades de Pointes or other treatment-emergent arrhythmia,[1],no cases of Torsades de Pointes or other treatment-emergent arrhythmia
same,dose-limiting toxicity,[1],without DLT
same,"dose-limiting toxicity, patients",[1],two patients
same,stable disease as best clinical response,[2],12 patients
same,effect of mild hepatic impairment on exposure,[3],no effect on romidepsin exposure
same,plasma concentrations at last time point,48 hours after initiation of the infusion,still quantifiable at the 48-hour time point
same,T1/2 (terminal half-life),"Mild Cohort B, 14 mg/m^2 IV, geometric mean ± SD",13.55±1.41 (7) hr
same,change of clearance with hepatic function,compared to the normal hepatic function cohort,clearance decreased with worsening hepatic function
same,geometric mean AUCINF as % of normal hepatic function cohort,[5],~144%
same,geometric mean Cmax as % of normal hepatic function cohort,[5],approximately 115%
same,geometric mean AUCINF as % of normal hepatic function cohort,[6],114%
same,geometric mean Cmax as % of normal hepatic function cohort,[6],96%
same,"dose-normalized AUCINF (AUCINF/D), range",[7],29.9 to 507.4 ng·h/mL/mg
same,"dose-normalized Cmax (Cmax/D), range",[7],7.3 to 84.6 ng/mL/mg
same,time at which plasma concentrations reached a plateau,"post infusion initiation (first sample collected), 4-hour IV infusion",approximately 1 hour
same,geometric mean AUCINF as % of normal hepatic function cohort,[8],116%
same,geometric mean Cmax as % of normal hepatic function cohort,[8],approximately 95%
same,clearance,[9],6.8 L/h
same,dose-normalized AUCINF (AUCINF/D),[9],192.4 ng·h/mL/mg and 146.6 ng·h/mL/mg
same,dose-normalized Cmax (Cmax/D),[9],32.1 ng/mL/mg and 40.5 ng/mL/mg
same,"Flu-like symptoms (malaise), Any Grade",[4]; [10],1 (17%) n (%)
same,"Infections, Any Grade",[4]; [10],1 (17%) n (%)
same,"Flu-like symptoms (malaise), Any Grade",[4]; [11],3 (10%) n (%)
same,"Infections, Any Grade",[4]; [11],4 (13%) n (%)
same,"Infections, Grade 3 or 4",[4]; [11],1 (3%) n (%)
same,subjects who discontinued before the end of Cycle 1 due to death,"[4]; all cohorts, n",5
same,clearance,"clinical; intravenous, clearance, range, patients who did not experience a DLT",33.3 to 557 mL/min
same,half-life,"clinical; iv, 5 mg/m2",14.5 ± 4.25 h
same,clearance,"clinical; iv, 5 mg/m2, Cl (systemic clearance), Severe Cohort D, 5 mg/m^2 IV, geometric mean ± SD",80 mL/min
same,Vd,"clinical; iv, 5 mg/m2, V (volume of distribution), Severe Cohort D, 5 mg/m^2 IV, geometric mean ± SD",15.4 ± 5.1 L
same,half-life,"clinical; iv, 7 mg/m2",14.1 ± 3.88 h
same,clearance,"clinical; iv, 7 mg/m2, Cl (systemic clearance), Moderate Cohort C, 7 mg/m^2 IV, geometric mean ± SD",115 mL/min
same,Vd,"clinical; iv, 7 mg/m2, V (volume of distribution), Moderate Cohort C, 7 mg/m^2 IV, geometric mean ± SD",19 ± 6.4 L
same,half-life,"clinical; iv, 14 mg/m2",11.1 ± 2.1 h
same,clearance,"clinical; iv, 14 mg/m2, Cl (systemic clearance), Mild Cohort B, 14 mg/m^2 IV, geometric mean ± SD",160 mL/min
same,clearance,"clinical; iv, 14 mg/m2, Cl (systemic clearance), Normal Cohort A, 14 mg/m^2 IV, geometric mean ± SD",270 mL/min
same,Vd,"clinical; iv, 14 mg/m2, V (volume of distribution), Mild Cohort B, 14 mg/m^2 IV, geometric mean ± SD",17.1 ± 2.5 L
same,Vd,"clinical; iv, 14 mg/m2, V (volume of distribution), Normal Cohort A, 14 mg/m^2 IV, geometric mean ± SD",20.7 ± 12.5 L
